# Assay results from EP0435693B1, “Pharmaceutical compositions containing 3-oxygermylpropionic acid polymers for inhibiting the degeneration of cells” (SANWA KAGAKU KENKYUSHO CO., LTD., priority 1989, dated 1991).
# Read-outs that look alike come from different tables or passages of the source.
# System: SD masculine rats with hypohepatia
# Type: in vivo
# Conditions: hepatoxic drug alone after carbon tetrachloride
# Protocol: Carbon tetrachloride was administered orally as a hepatoxic substance to SD masculine rats (weighing 500 g ± 50 g; age, 10 months) with hypohepatia (3 groups containing 8-9 rats each) at a dose of 0.5 g/kg, whereby their serum GOT was increased to more than 50 Karmen units after 24 hours. At the same time, 2 mg/kg of indomethacin as a hepatoxic drug (a lenitive), 5 mg/kg of 5-FU as a hepatoxic carcinostatic and 10 mg/kg of tetracycline as a hepatoxic antibiotic were administered orally to each of the animals five times every fourth day.
# An additional 20 mg/kg of the composition of Preparation Ex. 1 was administered orally to the medicated group.
# Seven days after the completion of medication, the animals were slaughtered to remove the livers, which were then visually observed. Afterwards, the tissue slices were observed under an optical microscope to examine the degree of heteroplasia of the liver cells.
# The GOT eluates due to cytoclasis were determined by gathering blood from the tail vein of each animal 24 hours after the administration of carbon tetrachloride, two and ten days after the initiation of medication and on the final date of experimentation.
smiles,measurement,setting,value
COc1ccc2c(c1)c(CC(=O)O)c(C)n2C(=O)c1ccc(Cl)cc1 [Indomethacin],mortality,,some animals died
same,serum GOT,2 days after the initiation of medication,81.3±4.21 Karmen units/ml
same,serum GOT,10 days,91.8±8.35 Karmen units/ml
same,serum GOT,Final Date,99.4±1.43 Karmen units/ml
"O=c1[nH]cc(F)c(=O)[nH]1 [5-FU, 5-fluorouracil]",mortality,,some animals died
